# Measured values reported in patent publication US20230348475A1, “IMIDAZOPYRIDAZINE AND IMIDAZOPYRAZINE COMPOUNDS AS INHIBITORS OF CDK7” (THE TRANSLATIONAL GENOMICS RESEARCH INSTITUTE, priority 2020, published 2023).
# Where a name gives a salt, the structure may show the parent alone.
# Tests used:
# CDK7/CycH/MAT1 = CDK7/CycH/MAT1 (Homo sapiens, UniProt P50613); test: Kinase Glo (ADP-Glo) biochemical assay, CDK7; conditions: CDK7/CycH/MAT1 40 ng, ATP 1 μM, 60 minutes at RT, luminescence
# Protocol: Materials: • Assay Buffer: 50 mM HEPES, 3 mM MgCl2, 3 mM MnCl2, 1 mM DTT, 3 μM Na3VO4, pH 7.5 • Substrate RB • CTF Peptide (ProQinase #: 0040-0000-6) • Enzymes • CDK7/CycH/MAT1 (ProQinase #: 0366-0360-4) • ADP-Glo™ Assay (Promega #: V9101) • ATP: 10 mM • ADP-Glo™ Reagent • Kinase Detection Reagent • 384-well white assay plates
# A ten point serial dilution of compound was prepared at 5X concentration in assay buffer with the final assay concentrations starting at 30 μM, 10 μM, 3 μM, 1 μM . . . 0 μM. Enzyme, substrate, and ATP were used at 40 ng, 200 ng (or 400 ng)* and 1 μM, respectively. The assay plate was set up by mixing the components in a total reaction volume of 10 μL per well. The plate was centrifuged gently for 10 seconds and incubated at room temperature (RT) for 60 minutes in the dark. The ADP-Glo Reagent and kinase detection reagent were added and incubated as recommended. The reaction was quantified by measuring luminescence on the Perkin Elmer Envision plate reader.
# [1] = test system: MiaPaCa2 pancreatic cancer cell line; test: Cell viability assay (Cell Titer Glo), MiaPaCa2; type: cell-based; conditions: Table 7a, pancreatic cancer cell line, 72 hour incubation
# Protocol: (§1) Materials: • Cell Lines (Treated according to ATCC guidelines) • Cell Titer Glo (Promega Cat #G7572) • DMSO • 96-well White Tissue Culture Treated Plates (Perkin Elmer Cat #60005680)
# (§2) Cells were seeded in a white 96-well tissue culture treated plate at a density of 1500 cells in 90 μL of media per well and allowed to settle overnight. A ten point serial dilution of drugs was prepared at 10×concentration in media with the final assay concentrations starting at 30 μM, 10 μM, 3 μM, 1 μM, 0.3 μM . . . 0 μM. A dilution of DMSO was included as a control. The assay was set up by adding 10 μL of the corresponding drug to each well in duplicate, followed by a 72 hour incubation at 37° C., 5% CO2. Cell viability was quantified by adding 90 μL of Cell Titer Glo to each well and incubating at room temperature for 10 minutes. The reaction was quantified by measuring luminescence using the Envision Plate Reader. Data was analyzed using Graphpad Prism 7 software.
# [2] = test system: HPAC pancreatic cancer cell line; test: Cell viability assay (Cell Titer Glo), HPAC; type: cell-based; conditions: Table 7a, pancreatic cancer cell line, 72 hour incubation
# Protocol: as §1, §2
# [3] = test system: Kasumi1 leukemia cancer cell line; test: Cell viability assay (Cell Titer Glo), Kasumi1; type: cell-based; conditions: 72 hour incubation
# Protocol: as §1, §2
# [4] = test system: A673 Ewingsarcoma cell line; test: Cell viability assay (Cell Titer Glo), A673; type: cell-based; conditions: 72 hour incubation
# Protocol: as §1, §2
# [5] = test system: MDA-MB-231 breast cancer cell line; test: Cell viability assay (Cell Titer Glo), MDA-MB-231; type: cell-based; conditions: Table 7a, breast cancer cell line, 72 hour incubation
# Protocol: as §1, §2
# [6] = test system: A2780 ovarian cancer cell line; test: Cell viability assay (Cell Titer Glo), A2780; type: cell-based; conditions: 72 hour incubation
# Protocol: as §1, §2
# [7] = Homo sapiens, Kasumi 1, Table 7a
# Sequence of CDK7/CycH/MAT1 (P50613 whole entry): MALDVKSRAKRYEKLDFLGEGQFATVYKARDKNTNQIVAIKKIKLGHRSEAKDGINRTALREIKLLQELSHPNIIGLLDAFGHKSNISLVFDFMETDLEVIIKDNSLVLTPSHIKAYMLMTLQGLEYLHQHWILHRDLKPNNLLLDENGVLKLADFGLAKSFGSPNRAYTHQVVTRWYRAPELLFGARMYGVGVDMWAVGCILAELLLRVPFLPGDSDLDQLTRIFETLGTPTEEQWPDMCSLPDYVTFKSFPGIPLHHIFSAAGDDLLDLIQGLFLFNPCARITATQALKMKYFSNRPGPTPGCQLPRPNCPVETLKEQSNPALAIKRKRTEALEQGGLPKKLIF
# Sequence of CDK7/CycH/MAT1 (P51946 whole entry partner): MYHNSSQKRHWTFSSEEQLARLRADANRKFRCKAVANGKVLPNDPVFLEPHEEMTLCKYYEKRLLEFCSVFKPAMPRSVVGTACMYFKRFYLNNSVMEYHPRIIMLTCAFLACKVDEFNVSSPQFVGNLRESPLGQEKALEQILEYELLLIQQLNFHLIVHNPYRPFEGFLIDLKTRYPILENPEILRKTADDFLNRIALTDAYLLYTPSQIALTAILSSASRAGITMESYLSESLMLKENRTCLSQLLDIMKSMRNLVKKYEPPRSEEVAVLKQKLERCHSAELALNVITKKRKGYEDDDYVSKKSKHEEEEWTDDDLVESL
# Sequence of CDK7/CycH/MAT1 (P51948 whole entry partner): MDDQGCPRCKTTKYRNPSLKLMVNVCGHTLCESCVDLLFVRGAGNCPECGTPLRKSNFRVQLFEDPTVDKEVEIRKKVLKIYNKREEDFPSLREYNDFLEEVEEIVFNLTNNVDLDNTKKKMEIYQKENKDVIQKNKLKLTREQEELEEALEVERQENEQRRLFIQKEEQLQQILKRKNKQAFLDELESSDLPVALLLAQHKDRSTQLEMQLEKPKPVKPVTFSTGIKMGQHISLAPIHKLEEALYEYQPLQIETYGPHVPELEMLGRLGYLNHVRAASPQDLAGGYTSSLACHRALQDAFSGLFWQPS
SMILES,IC50 (CDK7/CycH/MAT1),"IC50 ([1]; Homo sapiens, MIA PaCa-2)","IC50 ([2]; Homo sapiens, HPAC)","IC50 [3, 7]","IC50 ([4]; Homo sapiens, A673, Table 7a)",IC50 [1],IC50 [2],IC50 [5],IC50 ([3]; Table 7a),IC50 ([6]; Table 7a),IC50 ([4]; Table 7a),"IC50 ([5]; Homo sapiens, MDA-MB-231)","IC50 ([6]; Homo sapiens, A2780, Table 7a)"
"CC(C)c1cnc2c(NCc3ccccc3-n3cccn3)cc(SC3CCCNC3)nn12 (stereo not shown) [Compound 63, N-(2-(1H-pyrazol-1-yl)benzyl)-3-isopropyl-6-(piperidin-3-ylthio)imidazo[1,2-b]pyridazin-8-amine hydrochloride]",< 100 nM,< 1 µM,< 1 µM,< 1 µM,1 to 5 µM,,,,,,,,
"c1ccc(CNc2cc(SC3CCCNC3)nn3c(C4CC4)cnc23)cc1 (stereo not shown) [Compound 23, N-benzyl-3-cyclopropyl-6-(piperidin-3-ylthio)imidazo[1,2-b]pyridazin-8-amine dihydrochloride salt]",< 100 nM,,,,,1 to 5 µM,1 to 5 µM,1 to 5 µM,1 to 5 µM,1 to 5 µM,1 to 5 µM,,
"CC(C)c1cnc2c(N[C@@H](C)c3ccccc3)nc(SC3CCNCC3)cn12 [Compound 32, (S)-3-isopropyl-N-(1-phenylethyl)-6-(piperidin-4-ylthio)imidazo[1,2-α]pyrazin-8-amine dihydrochloride]",< 100 nM,1 to 5 µM,1 to 5 µM,1 to 5 µM,1 to 5 µM,,,,,,,> 5 µM,1 to 5 µM
"CC(C)c1cnc2c(NCc3ccccc3OC(F)(F)F)cc(OC3CCNCC3)nn12 [Compound 43, 3-isopropyl-6-(piperidin-4-yloxy)-N-(2-(trifluoromethoxy)benzyl)imidazo[1,2-b]pyridazin-8-amine hydrochloride]",< 100 nM,1 to 5 µM,1 to 5 µM,1 to 5 µM,1 to 5 µM,,,,,,,1 to 5 µM,1 to 5 µM
"CC(C)c1cnc2c(NCc3ccccc3OC(F)(F)F)cc(NC3CCNCC3)nn12 [Compound 38, hydrochloride]",< 100 nM,1 to 5 µM,1 to 5 µM,1 to 5 µM,1 to 5 µM,,,,,,,1 to 5 µM,1 to 5 µM
"CC(C)c1cnc2c(NCc3ccccc3OC(F)(F)F)cc(NC[C@@H]3CNCCO3)nn12 [Compound 46, (S)-3-isopropyl-N6-(morpholin-2-ylmethyl)-N8-(2-(trifluoromethoxy)benzyl)imidazo[1,2-b]pyridazine-6,8-diamine hydrochloride]",< 100 nM,1 to 5 µM,1 to 5 µM,> 5 µM,1 to 5 µM,,,,,,,1 to 5 µM,1 to 5 µM
"c1ccc(CNc2cc(SC3CCCNC3)nn3c(C4CC4)cnc23)cc1 (stereo not shown) [Compound 22, N-benzyl-3-cyclopropyl-6-(piperidin-3-ylthio)imidazo[1,2-b]pyridazin-8-amine formate]",< 100 nM,1 to 5 µM,1 to 5 µM,1 to 5 µM,1 to 5 µM,,,,,,,1 to 5 µM,1 to 5 µM
"CC(C)c1cnc2c(NCc3ccccc3-n3cccn3)cc(SC3CCNCC3)nn12 [Compound 62, N-(2-(1H-pyrazol-1-yl)benzyl)-3-isopropyl-6-(piperidin-4-ylthio)imidazo[1,2-b]pyridazin-8-amine hydrochloride]",< 100 nM,< 1 µM,1 to 5 µM,< 1 µM,1 to 5 µM,,,,,,,,
"CC(C)c1cnc2c(NCc3ccccc3)nc(SC3CCCNC3)cn12 (stereo not drawn) [Compound 26, N-benzyl-3-isopropyl-6-(piperidin-3-ylthio)imidazo[1,2-α]pyrazin-8-amine formate salt]",< 100 nM,> 5 µM,1 to 5 µM,1 to 5 µM,1 to 5 µM,,,,,,,> 5 µM,1 to 5 µM
"CC(C)c1cnc2c(NCc3ccccc3)cc(S[C@@H]3CCCNC3)nn12 (single isomer, unassigned) [Compound 41, hydrochloride]",< 100 nM,1 to 5 µM,1 to 5 µM,,1 to 5 µM,,,,,,,1 to 5 µM,1 to 5 µM
"CC(C)c1cnc2c(NCc3ccccc3N(C)C)cc(SC3CCNCC3)nn12 [Compound 64, N-(2-(dimethylamino)benzyl)-3-isopropyl-6-(piperidin-4-ylthio)imidazo[1,2-b]pyridazin-8-amine hydrochloride]",< 100 nM,< 1 µM,1 to 5 µM,< 1 µM,< 1 µM,,,,,,,,
"CC(C)c1cnc2c(N[C@@H](C)c3ccccc3)nc(SC3CCCNC3)cn12 (stereo partly drawn) [Compound 34, 3-isopropyl-N-((S)-1-phenylethyl)-6-(piperidin-3-ylthio)imidazo[1,2-α]pyrazin-8-amine hydrochloride]",< 100 nM,1 to 5 µM,1 to 5 µM,1 to 5 µM,> 5 µM,,,,,,,> 5 µM,1 to 5 µM
CC(C)c1cnc2c(NCc3ccccc3OC(F)(F)F)cc(SC3CCNCC3)nn12 [Compound 33],< 100 nM,< 1 µM,< 1 µM,1 to 5 µM,< 1 µM,,,,,,,1 to 5 µM,< 1 µM
"CC(C)c1cnc2c(NCc3ccccc3OC(F)(F)F)cc(NC[C@H]3CNCCO3)nn12 [Compound 48, (R)-3-isopropyl-N6-(morpholin-2-ylmethyl)-N8-(2-(trifluoromethoxy)benzyl)imidazo[1,2-b]pyridazine-6,8-diamine hydrochloride]",< 100 nM,1 to 5 µM,1 to 5 µM,> 5 µM,1 to 5 µM,,,,,,,1 to 5 µM,1 to 5 µM
"COc1ccccc1CNc1nc(SC2CCNCC2)cn2c(C(C)C)cnc12 [Compound 51, 3-isopropyl-N-(2-methoxybenzyl)-6-(piperidin-4-ylthio)imidazo[1,2-a]pyrazin-8-amine formate]",< 100 nM,1 to 5 µM,1 to 5 µM,,,,,,,,,> 5 µM,1 to 5 µM
"CC(C)c1cnc2c(NCc3ccccc3OC(F)F)cc(SC3CCNCC3)nn12 [Compound 66, N-(2-(difluoromethoxy)benzyl)-3-isopropyl-6-(piperidin-4-ylthio)imidazo[1,2-b]pyridazin-8-amine hydrochloride]",< 100 nM,< 1 µM,< 1 µM,1 to 5 µM,< 1 µM,,,,,,,,
"CC(C)c1cnc2c(NCc3ccccc3C(F)(F)F)cc(SC3CCNCC3)nn12 [Compound 53, 3-isopropyl-6-(piperidin-4-ylthio)-N-(2-(trifluoromethyl)benzyl)imidazo[1,2-b]pyridazin-8-amine hydrochloride]",< 100 nM,< 1 µM,< 1 µM,,,,,,,,,1 to 5 µM,< 1 µM
